Test results from publication PMC12603070, “A high-throughput screening approach to discover potential colorectal cancer chemotherapeutics: repurposing drugs to identify novel disruptors of 14-3-3 proteins” (Cell Death & Disease, 2025).
Where a name gives a salt, the structure may show the parent alone. Read-outs that look alike come from different tables or passages of the source.

How the values were obtained:
[1] = target: T1, 14-3-3ζ:BAD-112-136F interactions (Homo sapiens, UniProt P63104); assay: BRET sensor screen for disruption of 14-3-3ζ-Rluc8:BAD-112-136F-mCitrine in living NIH-3T3 cells; type: cell-based, murine; design: inhibition: dose or concentration left out as unconfirmed; BRET reduction on NIH-3T3: unit not given here; settings: for inhibition / inhibition at 20 µM: read-out: BRET reduction on NIH-3T3
T1 construct: expressed in transfected cells; host or cells: NIH-3T3 fibroblasts, bi-directional pBI-CMV1 plasmid
T1 sequence (P63104 1-245): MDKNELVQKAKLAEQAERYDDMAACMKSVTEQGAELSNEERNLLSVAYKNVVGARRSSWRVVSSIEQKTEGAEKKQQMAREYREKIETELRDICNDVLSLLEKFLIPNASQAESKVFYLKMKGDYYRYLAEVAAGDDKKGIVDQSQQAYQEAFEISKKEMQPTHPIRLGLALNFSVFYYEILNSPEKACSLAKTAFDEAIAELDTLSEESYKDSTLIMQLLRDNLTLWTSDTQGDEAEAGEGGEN
Summary of the method: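 NIH-3T3 cells were transfected with the BRET sensor two days beforehand, then replated on poly-L-ornithine-coated plates and grown 24 h at 37 °C. Medium was then replaced with Krebs buffer (pH 7.4). Z′-score was calculated to judge HTS robustness.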

NIH-3T3 cells = assay: Hoechst/propidium iodide cell death assay in NIH-3T3; type: cell-based; settings: for cytotoxicity at 20 µM: Mus musculus, NIH3T3, 24 h, read-out: Percentage of cell death % 24h NIH3t3
Description: (§1) A high-content imaging system (PerkinElmer; Operetta CLS), was used to quantify cell death and apoptosis by calculating the number of propidium iodide-positive cells relative to Hoechst-positive cells, and the number of Annexin V-positive cells relative to Hoechst-positive cells, respectively.

HT-29 cells = assay: Hoechst/propidium iodide cell death assay in HT-29; type: cell-based, human; settings: for %Cell death HT-29: time not given; for cytotoxicity at 20 µM: Homo sapiens
Description: as §1

Caco-2 cells = type: cell-based; settings: for Percentage of cell death % 24h CACO-2: 20 µM; for Percentage of cell death % 48h, Caco-2: 20 μM
Description: as §1

[2] = NIH-3T3 cells, hits from the primary screen
[3] = NIH3T3, 3 h, NIH-3T3 cells, hits from the primary screen
[4] = NIH3T3, 3 h, NIH-3T3 expressing BRET sensor, 20 µM, 3 h
[5] = HT-29, 24 h, 20 µM, 24 h, read-out: Percentage of cell death % 24h HT-29
[6] = HT-29, 48 h, HT-29, 48h, 20 μM, read-out: Percentage of cell death % 48h, HT-29

Structure (SMILES) | inhibition [1, 3] [%] | inhibition at 20 µM [1, 4] [%] | Percentage of cell death % 48h, NIH3T3 (NIH-3T3 cells) [%] | %Cell death HT-29 (HT-29 cells; HT-29) [%] | cytotoxicity at 20 µM (NIH-3T3 cells; 20 µM, 24 h) [%] | cytotoxicity at 20 µM (HT-29 cells; [5]) [%] | cytotoxicity at 20 µM (HT-29 cells; [6]) [%] | Percentage of cell death % 24h CACO-2 (Caco-2 cells) [%] | Percentage of cell death % 48h, Caco-2 (Caco-2 cells) [%] | other results
COC(=O)[C@]12CCC(C)(C)C[C@H]1[C@H]1C(=O)C=C3[C@@]4(C)C=C(C#N)C(=O)C(C)(C)[C@@H]4CC[C@@]3(C)[C@]1(C)CC2 [Bardoxolone methyl] |  |  | 72.1638 | 67.5 |  |  |  |  |  | BRET reduction on NIH-3T3 [1, 2]: 39.4225; BRET reduction on NIH-3T3 ([1]; NIH-3T3 expressing BRET sensor, 20 µM, 3 h): 39.4225; Percentage of cell death % 24h NIH3t3 (NIH-3T3 cells; 20 µM, 24 h): 87.0027%; Percentage of cell death % 24h HT-29 (HT-29 cells; 20 µM, 24 h): 43.1592%; Percentage of cell death % 48h, HT-29 (HT-29 cells; HT-29, 48h, 20 μM): 67.5309%; %Cell death Caco-2 (Caco-2 cells): 19.2%
Cc1cc(Nc2cc(CN3CCOCC3)c3nc(C)c(Cc4ccc(Cl)cc4F)n3n2)n[nH]1 [LY2784544] | 36.5 | 36.5 | 50.4683 |  | 62.8 | 6.62 | 55.6 | 12.6848 | 17.5299 | 
Cc1ccc(C(=O)N(CCCN)[C@@H](c2nc3cc(Cl)ccc3c(=O)n2Cc2ccccc2)C(C)C)cc1 [Ispinesib (SB-715992), Ispinesib] |  |  | 78.7121 |  |  |  |  | 86.1725 | 89.1796 | inhibition at 20 µM ([1]; NIH3T3, NIH-3T3 expressing BRET sensor, 20 µM, 3 h): 44.1%; BRET reduction on NIH-3T3 [1, 2]: 44.0919; cytotoxicity at 20 µM (NIH-3T3 cells): 87.5%; cytotoxicity at 20 µM (HT-29 cells; HT-29, 24 h, read-out: Percentage of cell death % 24h HT-29): 50.8%; cytotoxicity at 20 µM (HT-29 cells; HT-29, 48 h, read-out: Percentage of cell death % 48h, HT-29): 86.7%
CCCCCCCCCCCC[N+](C)(C)CCOc1ccccc1 [Domiphen Bromide] | 49 | 49 | 69.1517 |  | 81.2 | 15 | 57.1 | 24.2566 | 80.35 | 
O=c1[nH]c2ccccc2n1C1CCN(CCCC(c2ccc(F)cc2)c2ccc(F)cc2)CC1 [Pimozide] |  |  | 78.5926 | 64.6 | 65.9 | 11 | 64.6 |  |  | inhibition at 20 µM ([1]; NIH3T3, 3 h): 38.4%; BRET reduction on NIH-3T3 [1, 2]: 38.4171; %Cell death Caco-2 (Caco-2 cells): 59.9%
CCN(CC)CCOc1ccc(C(=C(Cl)c2ccccc2)c2ccccc2)cc1 [Clomiphene citrate] | 38.2 | 38.2 | 58.221 | 52.0 | 10.1 | 1.46 | 52 |  |  | %Cell death Caco-2 (Caco-2 cells): 34.7%
Clc1ccc(C(Cn2ccnc2)OCc2c(Cl)cccc2Cl)c(Cl)c1 (stereo not drawn) [Isoconazole nitrate] | 45.1 | 45.1 | 4.218 |  | 8.57 | 1.88 | 3.88 | 5.943 | 5.407 | 

Now from value to molecule, other results behind:

inhibition [1, 3] [%] | inhibition at 20 µM [1, 4] [%] | Structure (SMILES) | Percentage of cell death % 48h, NIH3T3 (NIH-3T3 cells) [%] | %Cell death HT-29 (HT-29 cells; HT-29) [%] | cytotoxicity at 20 µM (NIH-3T3 cells; 20 µM, 24 h) [%] | cytotoxicity at 20 µM (HT-29 cells; [5]) [%] | cytotoxicity at 20 µM (HT-29 cells; [6]) [%] | Percentage of cell death % 24h CACO-2 (Caco-2 cells) [%] | Percentage of cell death % 48h, Caco-2 (Caco-2 cells) [%] | other results
42.6 | 42.6 | COc1ccc2c(O[C@@H]3C[C@H]4C(=O)N[C@]5(C(=O)NS(=O)(=O)C6CC6)C[C@H]5/C=C\CCCCN(C)C(=O)[C@@H]4C3)cc(-c3nc(C(C)C)cs3)nc2c1C [Simeprevir] | 93.5636 | 70.9 | 19.3 | 38.8 | 70.9 | 3.948 | 5.542 | %Cell death Caco-2 (Caco-2 cells; time not given, text says 48 h): 5.5%
29.5 | 29.5 | CC(C)OC(=O)CCC/C=C\C[C@@H]1[C@@H](CC[C@@H](O)CCc2ccccc2)[C@H](O)C[C@@H]1O [Latanoprost] | 0.6511 |  | 1.31 | 0.702 | 1.45 | 2.638 | 2.117 | 
35.4 | 35.4 | Cc1ccc(Sc2ccccc2N2CCNCC2)c(C)c1 [Vortioxetine (Lu AA21004) HBr, Vortioxetine] | 71.7539 | 52.1 | 78.5 | 7.35 | 52.1 | 33.0298 | 76.1709 | %Cell death Caco-2 (Caco-2 cells; time not given, text says 48 h): 52.1%
25.6 | 25.6 | CCCSc1nc(N[C@@H]2C[C@H]2c2ccc(F)c(F)c2)c2nnn([C@@H]3C[C@H](OCCO)[C@@H](O)[C@H]3O)c2n1 [Ticagrelor] | 5.069 |  | 13.7 | 1.2 | 3.67 | 3.005 | 3.049 | 
33.9 | 33.9 | C=C[C@@H]1C[C@]1(NC(=O)[C@@H]1C[C@@H]2CN1C(=O)[C@H](C(C)(C)C)NC(=O)O[C@@H]1C[C@H]1CCCCCc1nc3ccc(OC)cc3nc1O2)C(=O)NS(=O)(=O)C1CC1 [MK-5172] | 0.3254 |  | 0.421 | 0.694 | 2.55 | 2.115 | 2.005 | 
27.1 | 27.1 | CCOC(=O)C1=C(C)NC(C)=C(C(=O)OCC)C1c1ccccc1/C=C/C(=O)OC(C)(C)C [Lacidipine] | 0.2227 |  | 0.275 | 1.94 | 2.6 | 4.66 | 4.938 | 
